The source of these data is paper PMC5805504 (Oncotarget, 2017).

Details of series [1]: method as in PMID 21859884. The following applies: rats; cited from earlier work.
Series [2] deals with U87MG xenograft tumors. Kind of series: U87MG glioblastoma xenograft tumor model. Conditions: galunisertib 25 mg/kg BID oral; lomustine (CCNU) 30 mg/kg single intraperitoneal dose; alone or combined.
Description: Five million U87MG glioblastoma cells, obtained from ATCC (Manassas, VA), were injected subcutaneously in the flank of 8- to 9-week old, female, athymic nude mice (Harlan, Indianapolis, IN) in a 1:1 mixture of 1x PBS and matrigel (Becton Dickinson, Bedford, MA). Mice were monitored daily for palpable tumors. […] The tumor volumes were recorded at regular intervals following treatment.

Consider `c1ccc(-c2nc3c(c(-n4ccc5cnccc54)n2)CCC3)nc1` [AZ12601011], for which the cardiac valve lesions result in series [1] is “induced cardiac valve lesions”.

Regarding `O=NN(CCCl)C(=O)NC1CCCCC1` [lomustine, reference compound], the “anti-tumor effect (tumor volume)” value in series [2] is listed as “antitumor activity”.
